We go through 5 sequences from patent publication US20150258192A1, “COMPOSITIONS AND METHODS FOR PREVENTING OR TREATING CHRONIC LUNG ALLOGRAFT DYSFUNCTION (CLAD) AND IDIOPATHIC PULMONARY FIBROSIS (IPF)” (priority 2014, published 2015).

One series addresses PAK6(h) (Homo sapiens, UniProt Q9NQU5). Put plainly: Kinase Profiling Assay. Format: biochemical. The following applies: peptide 100 μM. The procedure, abridged: (§1)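 Scintillation counting quantifies radiolabeled, positively charged substrate retained on a negatively charged filter after kinase reaction with labeled ATP; inhibitor peptide present.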
A further series addresses CK1γ2(h) (Homo sapiens, UniProt P78368). The series can be described thus: Kinase Profiling Assay. Format: biochemical. The following applies: peptide 100 μM. The procedure, abridged:
as §1

A further series relates to IL-6. Put plainly: Circulating inflammatory cytokines, bleomycin treatment model. The class given is in vivo, mouse. The following applies: 24 hours after final administration.
Series [1] deals with bleomycin-induced lung fibrosis in C57BL/6 mice. The following applies: 37.5 μg/kg daily for 14 d from d14, inhaled or intra-peritoneal; cited from earlier work.
The test system is the same in series [2]. Put plainly: Bleomycin mouse model of pulmonary fibrosis (IPF treatment model). The class given is in vivo. The note with it: for lung architecture and collagen distribution (H&E, Masson's trichrome), day 28: daily day 14-28 post bleomycin. The method, then:
A mouse model of pulmonary fibrosis was generated by administering 0.025 U of bleomycin/PBS intratracheally to C57BL/6 mice. […] At 21 day post bleomycin delivery (for prevention model) or 28 post bleomycin delivery (for treatment model), groups of mice were sacrificed with a sodium pentobarbital injection (120 mg/kg) and the chest cavity was opened. The right mainstem bronchus was ligated and the right lung was removed. The trachea was cannulated and the left lung was perfused with 4% formaldehyde at 21 cm H2O pressure. The tissue blocks then were embedded in paraffin, and […] sections were prepared for staining. Sections from each animal were stained with hematoxylin and eosin (H&E) to visualize cells or with Masson's Trichrome staining to highlight collagen deposition. […] Stained sections were mounted onto a labeled glass slide with organic mounting medium.
The classic bleomycin model, as depicted in FIG. 10, has been used widely in the literature in the pre-fibrotic stage to test efficacy of any intervention.
More specifically, fibrotic loci in the lungs were induced by delivering intratracheally about 0.025 U of bleomycin (dissolved in PBS) to C57BL/6 mice. […] Mice were sacrificed with a sodium pentobarbital injection (120 mg/kg) and the chest cavity was opened. The right mainstem bronchus was ligated and the right lung is removed. The trachea was cannulated and the left lung was perfused with 4% formaldehyde at 21 cm H2O pressure. The tissue blocks then were embedded in paraffin, and […] sections were prepared, and stained with hematoxylin and eosin (H&E; for pathological examination) or Masson's Trichrome (for collagen staining)
Next, collagen deposition was determined quantitatively by using the standard hydroxyproline assay with whole left lung. Total collagen (soluble and insoluble) deposition was assessed by analyzing hydroxyproline concentrations in murine lungs day 28 post bleomycin injury.

A further series deals with FGFR2(N549H)(h) (Homo sapiens, UniProt P21802, N549H). Put plainly: Kinase Profiling Assay. Format: biochemical. The note with it: peptide 100 μM. An outline of the steps: as §1
The subject of series [3] is fibroblasts from bleomycin treated murine hyaluronan synthase 2 (mHAS2) lung. The series can be described thus: HA production of fibroblasts. Format: cell-based, mouse.
Series [4] has as its system alpha-smooth muscle actin (α-SMA). Put plainly: α-SMA immunostaining of lung sections, bleomycin treatment model. The class given is in vivo, mouse. The following applies: 50 μg/kg/day IP or nebulizer, day 14-28. The source says:
C57-BL/6 mice were subjected to bleomycin injury at day 0. […] Formalin-fixed lung tissue sections were immunostained against α-SMA. Control staining was with biotinylated secondary IgG antibody. Streptavidin-conjugated horseradish peroxidase was used with 3,3′-diaminobenzidene as substrate and nuclei was counterstained with hematoxylin. Original magnifications: 20×

In another series the test system is splenic T cells. Put plainly: Autologous mixed lymphocyte reaction (MLR) of splenic T cells from treated bleomycin mice. Format: in vivo, mouse. The source says:
Recent studies highlighted a key role for T lymphocytes in bleomycin-induced fibrosis (Wilson, M. et al., The Journal of Experimental Medicine, 207(3): 535-552, 2010). […] Specifically, the ability of C57BL/6 purified antigen-presenting cells to induce proliferation in C57BL/6 T lymphocytes was examined in the assay.
C57-BL/6 mice were subjected to bleomycin injury at day 0. […] Splenic T cells were isolated and cultured alone or in the presence of autologous antigen presenting cells (APCs from C57-BL/6 mice) or stimulated with antibodies against CD3 (α-CD3) for 48 h. The cells then were radiolabeled with […] thymidine for 16 h and assessed for proliferation rates.
The viability of the T cells also was confirmed by stimulating the cells with antibodies against α-CD3, a polyclonal T cell activator. α-CD3 induced robust proliferation of the cells irrespective of the treatment group.

The subject of series [5] is bleomycin treated wild type (WT) mouse lung. Put plainly: HA content in bleomycin treated mouse lung. The following applies: in vivo.
Another series has as its system TNF-α. Put plainly: Circulating inflammatory cytokines, bleomycin treatment model. The following applies: 24 hours after final administration. The class given is in vivo, mouse.
Series [6] has as its system fibroblasts from bleomycin treated mouse lung. Put plainly: Matrigel invasion assay, mouse lung fibroblasts. Format: cell-based. The note with it: fibroblasts from WT or ASMA-HAS2 mice; 8 μm. The method, then: Fibroblasts are critical effector cells in mediating tissue remodeling. […] We have developed a novel model of progressive lung fibrosis based on a cancer metastasis model. […] We hypothesized that fibrotic fibroblasts acquire an invasive phenotype that is essential for progressive fibrogenesis and that CD44 has a critical role in regulating the process. We utilized an assay system in which fibroblasts are evaluated for their ability to spontaneously invade Matrigel, a composite matrix with basement membrane constituents. This assay has been used to analyze the metastatic potential of cancer cells (40).
To determine the role of CD44 in fibroblast invasion we examined the invasive capacity of fibroblasts isolated from CD44 null mice after bleomycin treatment and found impaired invasive capacity (not shown). Similar results were found from fibroblasts isolated from ASMA-HAS2+/CD44−/− mice (FIG. 37 A). Furthermore, treating fibroblasts isolated from bleomycin-challenged wild type C57B1/6J mice with anti-CD44 Abs blunted fibroblast invasion (FIG. 37 B).

A further series has as its target c-RAF(h) (Homo sapiens, UniProt P04049). Put plainly: Kinase Profiling Assay. The following applies: peptide 100 μM. Format: biochemical. The procedure, abridged:
as §1

The target in another series is CLK2(h) (Homo sapiens, UniProt P49760). The series can be described thus: Kinase Profiling Assay. Format: biochemical. The following applies: peptide 100 μM. An outline of the steps:
as §1

The target in another series is CK1γ1(h) (Homo sapiens, UniProt Q9HCP0). Put plainly: Kinase Profiling Assay. Format: biochemical. The note with it: peptide 100 μM. The procedure, abridged: as §1
The target in a further series is Plk1(h) (Homo sapiens, UniProt P53350). The series can be described thus: Kinase Profiling Assay. The note with it: peptide 100 μM. The class given is biochemical. An outline of the steps:
as §1

No end group written: not given here.

Chain of CLK2(h) (P49760 whole entry): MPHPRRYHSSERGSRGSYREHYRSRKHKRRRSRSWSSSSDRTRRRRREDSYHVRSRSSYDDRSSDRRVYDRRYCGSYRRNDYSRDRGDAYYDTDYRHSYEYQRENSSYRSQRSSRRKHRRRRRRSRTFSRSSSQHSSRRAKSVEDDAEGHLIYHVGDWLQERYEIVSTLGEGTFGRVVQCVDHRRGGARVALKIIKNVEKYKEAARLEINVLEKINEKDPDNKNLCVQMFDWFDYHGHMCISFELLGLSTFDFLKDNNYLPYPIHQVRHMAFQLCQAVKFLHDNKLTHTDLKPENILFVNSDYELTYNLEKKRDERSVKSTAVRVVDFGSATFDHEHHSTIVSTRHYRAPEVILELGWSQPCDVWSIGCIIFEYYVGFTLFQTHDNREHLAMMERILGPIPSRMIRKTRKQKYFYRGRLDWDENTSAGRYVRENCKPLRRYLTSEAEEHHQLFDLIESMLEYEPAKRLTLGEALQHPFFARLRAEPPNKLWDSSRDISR
Chain of PAK6(h) (Q9NQU5 whole entry): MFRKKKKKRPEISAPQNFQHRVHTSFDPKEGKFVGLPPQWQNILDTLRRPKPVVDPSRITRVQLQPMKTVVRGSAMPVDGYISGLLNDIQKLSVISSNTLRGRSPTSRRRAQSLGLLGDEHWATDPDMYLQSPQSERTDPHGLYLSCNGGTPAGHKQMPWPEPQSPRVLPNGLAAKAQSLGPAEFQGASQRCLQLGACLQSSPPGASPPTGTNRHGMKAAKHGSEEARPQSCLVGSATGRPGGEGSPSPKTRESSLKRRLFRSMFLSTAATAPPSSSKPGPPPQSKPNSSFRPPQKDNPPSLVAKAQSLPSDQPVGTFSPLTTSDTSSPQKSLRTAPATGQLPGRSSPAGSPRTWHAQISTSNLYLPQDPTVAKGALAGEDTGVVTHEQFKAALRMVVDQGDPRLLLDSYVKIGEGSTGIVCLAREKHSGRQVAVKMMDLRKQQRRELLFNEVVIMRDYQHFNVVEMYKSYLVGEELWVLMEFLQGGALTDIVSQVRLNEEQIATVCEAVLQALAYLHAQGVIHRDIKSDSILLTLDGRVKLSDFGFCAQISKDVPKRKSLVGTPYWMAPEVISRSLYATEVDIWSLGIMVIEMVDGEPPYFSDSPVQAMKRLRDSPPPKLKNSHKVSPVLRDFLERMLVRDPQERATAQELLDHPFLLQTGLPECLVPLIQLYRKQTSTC
Chain of CK1γ1(h) (Q9HCP0 whole entry): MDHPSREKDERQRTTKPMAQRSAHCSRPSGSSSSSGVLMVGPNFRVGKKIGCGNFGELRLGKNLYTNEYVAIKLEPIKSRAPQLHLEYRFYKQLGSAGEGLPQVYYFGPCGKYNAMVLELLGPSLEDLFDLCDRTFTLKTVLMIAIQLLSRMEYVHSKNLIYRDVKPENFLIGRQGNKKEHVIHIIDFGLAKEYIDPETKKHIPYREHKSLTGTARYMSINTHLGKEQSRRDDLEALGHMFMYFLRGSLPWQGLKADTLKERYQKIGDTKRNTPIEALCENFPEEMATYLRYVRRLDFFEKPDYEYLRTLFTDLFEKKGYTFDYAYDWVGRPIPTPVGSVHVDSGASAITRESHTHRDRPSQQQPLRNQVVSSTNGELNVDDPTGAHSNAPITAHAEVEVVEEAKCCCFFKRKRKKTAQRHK
Chain of FGFR2(N549H)(h) (P21802 22-821 N549H): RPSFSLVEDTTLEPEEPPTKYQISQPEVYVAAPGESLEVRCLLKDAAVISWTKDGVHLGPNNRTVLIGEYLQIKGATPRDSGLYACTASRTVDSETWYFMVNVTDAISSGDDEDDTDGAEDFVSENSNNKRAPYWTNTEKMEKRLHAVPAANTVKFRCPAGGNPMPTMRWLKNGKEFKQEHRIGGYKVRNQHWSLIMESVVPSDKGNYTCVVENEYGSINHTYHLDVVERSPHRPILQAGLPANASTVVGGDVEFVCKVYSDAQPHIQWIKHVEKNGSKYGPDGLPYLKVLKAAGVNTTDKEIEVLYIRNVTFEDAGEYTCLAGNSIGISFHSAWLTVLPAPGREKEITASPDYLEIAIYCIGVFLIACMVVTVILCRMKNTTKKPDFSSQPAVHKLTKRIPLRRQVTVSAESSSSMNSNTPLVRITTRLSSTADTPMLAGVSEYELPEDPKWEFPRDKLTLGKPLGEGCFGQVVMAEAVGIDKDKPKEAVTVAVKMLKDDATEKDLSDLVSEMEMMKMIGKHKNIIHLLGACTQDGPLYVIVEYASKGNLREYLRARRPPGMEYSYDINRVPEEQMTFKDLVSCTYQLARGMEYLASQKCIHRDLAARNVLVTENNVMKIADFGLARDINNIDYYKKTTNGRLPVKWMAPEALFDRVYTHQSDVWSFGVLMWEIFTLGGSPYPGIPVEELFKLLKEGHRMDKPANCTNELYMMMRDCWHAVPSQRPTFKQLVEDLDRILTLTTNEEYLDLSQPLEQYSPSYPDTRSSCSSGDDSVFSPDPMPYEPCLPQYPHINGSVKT
Chain of CK1γ2(h) (P78368 whole entry): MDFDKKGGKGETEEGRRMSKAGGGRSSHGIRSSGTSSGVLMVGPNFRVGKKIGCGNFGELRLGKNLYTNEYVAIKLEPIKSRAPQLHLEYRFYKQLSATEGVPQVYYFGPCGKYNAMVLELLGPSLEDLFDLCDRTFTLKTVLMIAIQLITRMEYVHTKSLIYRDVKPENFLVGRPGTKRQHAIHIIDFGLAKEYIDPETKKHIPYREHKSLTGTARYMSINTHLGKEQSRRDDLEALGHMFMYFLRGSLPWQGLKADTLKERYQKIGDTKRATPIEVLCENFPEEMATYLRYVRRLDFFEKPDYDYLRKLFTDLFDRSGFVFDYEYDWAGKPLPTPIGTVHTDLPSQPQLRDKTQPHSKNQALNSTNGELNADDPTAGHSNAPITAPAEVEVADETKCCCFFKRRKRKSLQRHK
Chain of Plk1(h) (P53350 whole entry): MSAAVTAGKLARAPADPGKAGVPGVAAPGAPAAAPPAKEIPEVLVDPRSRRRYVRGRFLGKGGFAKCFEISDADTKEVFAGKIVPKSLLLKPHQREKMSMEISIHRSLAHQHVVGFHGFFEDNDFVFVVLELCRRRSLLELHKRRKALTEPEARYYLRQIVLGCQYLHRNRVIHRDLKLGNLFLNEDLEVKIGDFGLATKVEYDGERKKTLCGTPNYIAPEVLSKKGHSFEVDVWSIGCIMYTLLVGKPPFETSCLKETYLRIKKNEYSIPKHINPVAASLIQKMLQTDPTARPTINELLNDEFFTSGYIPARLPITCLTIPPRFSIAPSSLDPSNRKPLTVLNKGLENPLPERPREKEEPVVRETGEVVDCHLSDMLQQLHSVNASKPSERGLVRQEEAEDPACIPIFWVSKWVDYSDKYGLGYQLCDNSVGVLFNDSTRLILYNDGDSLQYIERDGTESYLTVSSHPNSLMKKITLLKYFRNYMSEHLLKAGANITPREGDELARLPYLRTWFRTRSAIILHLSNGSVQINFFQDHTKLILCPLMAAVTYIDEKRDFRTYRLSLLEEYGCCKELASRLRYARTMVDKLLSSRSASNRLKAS

As for KAFAKLAARLYRKALARQLGVAA [MMI-0400], in the series with PAK6(h), the “% activity” value is recorded as 100%.

Regarding FAKLAARLYRKALARQLGVAA [MMI-0300], in the series with CK1γ2(h), the “% activity” value stood at 123%.

As for YARAAARQARAKALARQLGVAA [MMI-0100], the “plasma level of IL-6” value with IL-6 (intraperitoneal) and with IL-6 (nebulized) was “significantly reduced” each time. The “progression of fibrosis (collagen deposition, myofibroblast differentiation, activated MK2 expression)” value in series [1] is “inhibited”. Moreover, in series [2] (50 μg/kg/day IP or nebulizer from day 14), the “progression of collagen deposition (hydroxyproline assay, whole left lung), day 28” value is “significantly arrested further progression”. Moreover, the “lung architecture and collagen distribution (H&E, Masson's trichrome), day 28” value in series [2] (intraperitoneally) and in series [2] (locally applied to the lung (nebulized)) was “rescued” throughout. For the same sequence, the “% activity” value at FGFR2(N549H)(h) stood at 95%. Also, in series [3], the “hyaluronan (HA) production” value was “reduced”. Moreover, the “level of α-SMA in lungs vs untreated bleomycin-injured lungs” value in series [4] was “significantly attenuated”. In addition, the “toxicity (splenic T cell response to α-CD3)” value with splenic T cells (50 μg/kg/day) is “no toxicity”. Also, the systemic distribution result with splenic T cells (nebulized delivery, inferred from lack of splenic T cell response) is recorded as “little systemic distribution”. In series [5], the “hyaluronan (HA) content in lung” value is “reduced”. Besides, the “plasma level of TNF-α” value with TNF-α (intraperitoneal) and with TNF-α (nebulized) was “significantly reduced” each time. The fibroblast invasion entry in series [6] was “significantly reduced”.

Consider “HRRIKAWLKKIKALARQLGVAA (Mammal) [MMI-0500]”, for which the “% activity” value with c-RAF(h) stood at 19%.

Turning to “YARAAARQARAKALNRQLGVA (Mammal) [MMI-0200]”, the results for the “% activity” value in the series with CLK2(h), with CK1γ1(h) and with Plk1(h) were 97%, 98% and 128%, respectively.
